Results on 30 compounds are retold here after US9657015B2, “Substituted bicyclic dihydropyrimidinones and their use as inhibitors of neutrophil elastase activity” (Boehringer Ingelheim International GmbH, priority 2014, dated 2017).

pIC50: −log10 of the molar value.

As usually defined, the pIC50 is the negative decadic logarithm of the IC50, by convention in mol/L. Low values mean a large IC50, high ones a small IC50.

Assay [1] deals with neutrophil elastase in human plasma (Homo sapiens (Human), UniProt P08246). Briefly: Neutrophil elastase inhibitory activity in human plasma. In kind it is biochemical. To be noted: human plasma assay (zymosan-stimulated blood plasma), substrate 250 μM, pH 7.5.
neutrophil elastase in human plasma, sequence (P08246 30-247): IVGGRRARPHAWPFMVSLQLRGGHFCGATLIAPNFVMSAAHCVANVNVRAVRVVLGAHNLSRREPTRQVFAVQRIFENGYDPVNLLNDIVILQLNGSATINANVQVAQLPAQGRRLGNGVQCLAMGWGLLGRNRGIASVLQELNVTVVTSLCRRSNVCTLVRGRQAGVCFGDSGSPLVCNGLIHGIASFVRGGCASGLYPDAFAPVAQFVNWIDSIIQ
Procedure: Assay for the Determination of Neutrophil Elastase Inhibitory Activity in Human Plasma
Citrated blood from human healthy donors is mixed with zymosan suspension and incubated at room temperature. This leads to the stimulation of neutrophils and the release of neutrophil elastase into the plasma. The stimulated blood is centrifuged to generate the neutrophil elastase enriched plasma.
Preparation of Zymosan Working Solution:
Various concentrations of the neutrophil elastase inhibitor are incubated with plasma. […] A dose response curve is generated to calculate the EC50 of the inhibitor.
Assay [2] concerns the target Human neutrophil elastase (Homo sapiens (Human), UniProt P08246). Briefly: Human Neutrophil Elastase Assay. In kind it is biochemical. To be noted: substrate MeOSuc-Ala-Ala-Pro-Val-AMC 250 μM, pH 7.5, room temperature.

Human neutrophil elastase, sequence (P08246 30-247): as above

`N#Cc1ccc(C2NC(=O)N(c3cccc(C(F)(F)F)c3)C3=C2C(=O)NCC3)cc1` (racemic) [Example 1, 4-(2,5-Dioxo-1-(3-(trifluoromethyl)phenyl)-1,2,3,4,5,6,7,8-octahydropyrido[4,3-d]-pyrimidin-4-yl)benzonitrile]: the pIC50 in assay [1] is 7.96; in assay [2], 8.24.
The like results for `N#Cc1ccc(C2NC(=O)N(c3cccc(C(F)F)c3)C3=C2C(=O)NCC3)cc1` (racemic) [Example 2, 4-(1-(3-(Difluoromethyl)phenyl)-2,5-dioxo-1,2,3,4,5,6,7,8-octahydropyrido[4,3-d]-pyrimidin-4-yl)benzonitrile] were, in that order, 8.09 and 8.16.
The corresponding values for `CN1CCC2=C(C1=O)C(c1ccc(C#N)cc1)NC(=O)N2c1cccc(C(F)(F)F)c1` (racemic) [Example 4, 4-(6-Methyl-2,5-dioxo-1-(3-(trifluoromethyl)phenyl)-1,2,3,4,5,6,7,8-octahydropyrido[4,3-d]pyrimidin-4-yl)benzonitrile] are 8.54 and 8.24.
The corresponding values for `CNC(=O)CN1C(=O)N(c2cccc(C(F)(F)F)c2)C2=C(C(=O)NCC2)C1c1ccc(C#N)cc1` (racemic) [Example 12, 2-(4-(4-Cyanophenyl)-2,5-dioxo-1-(3-(trifluoromethyl)phenyl)-1,2,5,6,7,8-hexahydropyrido[4,3-d]pyrimidin-3(4H)-yl)-N-methylacetamide] are 8.55 and 8.70.
In the case of `CN1C(=O)N(c2cccc(C(F)(F)F)c2)C2=C(C(=O)NCC2)C1c1ccc(C#N)cc1-c1cnco1` (racemic) [Example 25, 4-{3-Methyl-2,5-dioxo-1-[3-(trifluoromethyl)phenyl]-1H,2H,3H,4H,5H,6H,7H,8H-pyrido[4,3-d]pyrimidin-4-yl}-3-(1,3-oxazol-5-yl)benzonitrile], the pIC50 in assay [1] was 8.82; in assay [2], greater than 9.00.
The corresponding values for `CN1C(=O)N(c2cccc(C(F)(F)F)c2)C2=C(C(=O)NCC2)C1c1ccc(C#N)cc1-c1cnn(C)c1` (racemic) [Example 26, 3-(1-Methyl-1H-pyrazol-4-yl)-4-{3-methyl-2,5-dioxo-1-[3-(trifluoromethyl)phenyl]-1H,2H,3H,4H,5H,6H,7H,8H-pyrido[4,3-d]pyrimidin-4-yl}benzonitrile] are 8.85 and greater than 9.00.
The like results for `CN1C(=O)N(c2cccc(C(F)(F)F)c2)C2=C(C(=O)NCC2)C1c1ccc(C#N)cc1CO` (racemic) [Example 29, 3-(Hydroxymethyl)-4-{3-methyl-2,5-dioxo-1-[3-(trifluoromethyl)phenyl]-1H,2H,3H,4H,5H,6H,7H,8H-pyrido[4,3-d]pyrimidin-4-yl}benzonitrile] were, in that order, greater than 9.00 and greater than 9.00.
`N#Cc1ccc([C@@H]2NC(=O)N(c3cccc(C(F)(F)F)c3)C3=C2C(=O)NCC3)cc1` [Example 1B, (S)-4-(2,5-Dioxo-1-(3-(trifluoromethyl)phenyl)-1,2,3,4,5,6,7,8-octahydropyrido[4,3-d]-pyrimidin-4-yl)benzonitrile]: in assay [2], the pIC50 was 6.03.
For the compound `N#Cc1ccc([C@@H]2NC(=O)N(c3cccc(C(F)F)c3)C3=C2C(=O)NCC3)cc1` [Example 2B, (S)-4-(1-(3-(Difluoromethyl)phenyl)-2,5-dioxo-1,2,3,4,5,6,7,8-octahydropyrido[4,3-d]-pyrimidin-4-yl)benzonitrile], in assay [2], the pIC50 was less than 5.00.
`CC1(C)CC2=C(C(=O)N1)C(c1ccc(C#N)cc1)NC(=O)N2c1cccc(C(F)(F)F)c1` (stereo not shown) [Example 3, 4-(7,7-Dimethyl-2,5-dioxo-1-(3-(trifluoromethyl)phenyl)-1,2,3,4,5,6,7,8-octahydropyrido[4,3-d]pyrimidin-4-yl)benzonitrile]: the negative logarithm of the IC50 (pIC50) was 7.89 in assay [1] and 8.01 in assay [2].
For the compound `CN1CCC2=C(C1=O)[C@H](c1ccc(C#N)cc1)NC(=O)N2c1cccc(C(F)(F)F)c1` [Example 4B, (S)-4-(6-Methyl-2,5-dioxo-1-(3-(trifluoromethyl)phenyl)-1,2,3,4,5,6,7,8-octahydropyrido[4,3-d]pyrimidin-4-yl)benzonitrile], in assay [2], the pIC50 was 5.72.
For the compound `CN1C(=O)N(c2cccc(C(F)(F)F)c2)C2=C(C(=O)NCC2)C1c1ccc(C#N)cc1` (stereo not shown) [Example 5, 4-(3-Methyl-2,5-dioxo-1-(3-(trifluoromethyl)phenyl)-1,2,3,4,5,6,7,8-octahydropyrido-[4,3-d]pyrimidin-4-yl)benzonitrile], the pIC50 in assay [1] is 8.96; in assay [2] it was 8.72.
The corresponding values for `CN1CCC2=C(C1=O)[C@@H](c1ccc(C#N)cc1)N(C)C(=O)N2c1cccc(C(F)(F)F)c1` [Example 7, (R)-4-(3,6-Dimethyl-2,5-dioxo-1-(3-(trifluoromethyl)phenyl)-1,2,3,4,5,6,7,8-octahydropyrido[4,3-d]pyrimidin-4-yl)benzonitrile] are 8.70 and 8.92.
For `CN1C(=O)N(c2cccc(C(F)F)c2)C2=C(C(=O)NCC2)[C@@H]1c1ccc(C#N)cc1` [Example 8B, (S)-4-(1-(3-(Difluoromethyl)phenyl)-3-methyl-2,5-dioxo-1,2,3,4,5,6,7,8-octahydropyrido[4,3-d]pyrimidin-4-yl)benzonitrile], the pIC50 in assay [2] is 7.44.
Turning to `N#Cc1ccc(C2C3=C(CCNC3=O)N(c3cccc(C(F)(F)F)c3)C(=O)N2CC(=O)O)cc1` (stereo not shown) [Example 10, 2-(4-(4-Cyanophenyl)-2,5-dioxo-1-(3-(trifluoromethyl)phenyl)-1,2,5,6,7,8-hexahydropyrido[4,3-d]pyrimidin-3(4H)-yl)acetic acid], the pIC50 is 8.62 in assay [1] and 8.57 in assay [2].
The like results for `N#Cc1ccc(C2C3=C(CCNC3=O)N(c3cccc(C(F)(F)F)c3)C(=O)N2CC(N)=O)cc1` (stereo not shown) [Example 11, 2-(4-(4-Cyanophenyl)-2,5-dioxo-1-(3-(trifluoromethyl)phenyl)-1,2,5,6,7,8-hexahydropyrido[4,3-d]pyrimidin-3(4H)-yl)acetamide] were, in that order, 8.54 and 8.52.
`CN(C)C(=O)CN1C(=O)N(c2cccc(C(F)(F)F)c2)C2=C(C(=O)NCC2)C1c1ccc(C#N)cc1` (stereo not shown) [Example 12.1]: the pIC50 was greater than 9.00 in assay [1] and 8.96 in assay [2].
Turning to `CCNC(=O)CN1C(=O)N(c2cccc(C(F)(F)F)c2)C2=C(C(=O)NCC2)C1c1ccc(C#N)cc1` (stereo not shown) [Example 12.2], the pIC50 in assay [1] was 8.60; in assay [2], 8.62.
The corresponding values for `N#Cc1ccc(C2C3=C(CCNC3=O)N(c3cccc(C(F)(F)F)c3)C(=O)N2CC(=O)NCCO)cc1` (stereo not shown) [Example 12.3] are 8.44 and 8.68.
The corresponding values for `COCCNC(=O)CN1C(=O)N(c2cccc(C(F)(F)F)c2)C2=C(C(=O)NCC2)C1c1ccc(C#N)cc1` (stereo not shown) [Example 12.4] are 8.29 and 8.70.
The like results for `N#Cc1ccc(C2C3=C(CCNC3=O)N(c3cccc(C(F)(F)F)c3)C(=O)N2CC(=O)N2CC3CC3C2)cc1` (stereo not shown) [Example 12.5] were, in that order, greater than 9.00 and greater than 9.00.
As to `N#Cc1ccc(C2C3=C(CCNC3=O)N(c3cccc(C(F)(F)F)c3)C(=O)N2CC(=O)N2CCCCC2)cc1` (stereo not shown) [Example 12.6], the pIC50 in assay [1] and in assay [2] was greater than 9.00 in each case.
`N#Cc1ccc(C2C3=C(CCNC3=O)N(c3cccc(C(F)(F)F)c3)C(=O)N2CC(=O)N2CCOCC2)cc1` (stereo not shown) [Example 12.7]: the pIC50 in assay [1] and in assay [2] was greater than 9.00 in each case.
Consider `N#Cc1ccc(C2C3=C(CCNC3=O)N(c3cccc(C(F)(F)F)c3)C(=O)N2CC(=O)N2CCC(F)C2)cc1` (stereo not shown) [Example 12.8], for which the pIC50 in assay [1] is 8.96; in assay [2], greater than 9.00.
Turning to `Cn1ncc2c1CN(C(=O)CN1C(=O)N(c3cccc(C(F)(F)F)c3)C3=C(C(=O)NCC3)C1c1ccc(C#N)cc1)C2` (stereo not shown) [Example 12.9], the values for the negative-log IC50 (pIC50) in assay [1] and in assay [2] were 9.00 and greater than 9.00, respectively.
The corresponding values for `CNC(=O)CN1C(=O)N(c2cccc(C(F)(F)F)c2)C2=C(C(=O)NCC2)[C@H]1c1ccc(C#N)cc1` [Example 12A, (R)-2-(4-(4-Cyanophenyl)-2,5-dioxo-1-(3-(trifluoromethyl)phenyl)-1,2,5,6,7,8-hexahydropyrido[4,3-d]pyrimidin-3(4H)-yl)-N-methylacetamide] are greater than 9.00 and 8.89.
Regarding `CNC(=O)CN1C(=O)N(c2cccc(C(F)(F)F)c2)C2=C(C(=O)NCC2)[C@@H]1c1ccc(C#N)cc1` [Example 12B, (S)-2-(4-(4-Cyanophenyl)-2,5-dioxo-1-(3-(trifluoromethyl)phenyl)-1,2,5,6,7,8-hexahydropyrido[4,3-d]pyrimidin-3(4H)-yl)-N-methylacetamide], the pIC50 in assay [2] was 5.92.
The same measure, in the same setting: the same measure for `CN1C(=O)N(c2cccc(C(F)(F)F)c2)C2=C(C(=O)NCC2)[C@@H]1c1ccc(C#N)cc1-c1cnco1` [Example 30B, 4-[(4S)-3-Methyl-2,5-dioxo-1-[3-(trifluoromethyl)phenyl]-1H,2H,3H,4H,5H,6H,7H,8H-pyrido[4,3-d]pyrimidin-4-yl]-3-(1,3-oxazol-5-yl)benzonitrile]: 7.92; for `CN1C(=O)N(c2cccc(C(F)(F)F)c2)C2=C(C(=O)NCC2)[C@@H]1c1ccc(C#N)cc1-c1cnn(C)c1` [Example 31B, 3-(1-Methyl-1H-pyrazol-4-yl)-4-[(4S)-3-methyl-2,5-dioxo-1-[3-(trifluoromethyl)-phenyl]-1H,2H,3H,4H,5H,6H,7H,8H-pyrido[4,3-d]pyrimidin-4-yl]benzonitrile]: 7.77; for `CN1C(=O)N(c2cccc(C(F)(F)F)c2)C2=C(C(=O)NCC2)[C@@H]1c1ccc(C#N)cc1CO` [Example 32B, 3-(Hydroxymethyl)-4-[(4S)-3-methyl-2,5-dioxo-1-[3-(trifluoromethyl)phenyl]-1H,2H,3H,4H,5H,6H,7H,8H-pyrido[4,3-d]pyrimidin-4-yl]benzonitrile]: 7.41.
